# Laboratory results published in ChEMBL document CHEMBL1687784, “Frequency of spontaneous resistance to fosfomycin combined with different antibiotics in Pseudomonas aeruginosa” (2010).
# Experiments:
# [1] = tested on: Pseudomonas aeruginosa; assay: Antimicrobial activity against Pseudomonas aeruginosa PA14 by EUCAST method; assay type: functional
# [2] = tested on: Pseudomonas aeruginosa; assay: Antimicrobial activity against Pseudomonas aeruginosa PA14 mutS gene hypermutant by EUCAST method; assay type: functional
Molecule,MIC [1] [µg/mL],MIC [2] [µg/mL]
NCC[C@H](O)C(=O)N[C@@H]1C[C@H](N)[C@@H](O[C@H]2O[C@H](CN)[C@@H](O)[C@H](O)[C@H]2O)[C@H](O)[C@H]1O[C@H]1O[C@H](CO)[C@@H](O)[C@H](N)[C@H]1O [AMIKACIN],1,1
CC(C)(O/N=C(\C(=O)N[C@@H]1C(=O)N2C(C(=O)[O-])=C(C[n+]3ccccc3)CS[C@H]12)c1csc(N)n1)C(=O)O [CEFTAZIDIME],1,1
O=C(O)c1cn(C2CC2)c2cc(N3CCNCC3)c(F)cc2c1=O [CIPROFLOXACIN],0.1,0.1
C[C@@H]1O[C@@H]1P(=O)(O)O [FOSFOMYCIN],8,8
C[C@@H](O)[C@H]1C(=O)N2C(C(=O)O)=C(SCCNC=N)C[C@H]12 [IMIPENEM ANHYDROUS],0.5,0.5
C[C@@H](O)[C@H]1C(=O)N2C(C(=O)O)=C(S[C@@H]3CN[C@H](C(=O)N(C)C)C3)[C@H](C)[C@H]12 [MEROPENEM],0.25,0.25
NC[C@H]1O[C@H](O[C@H]2[C@H](O)[C@@H](O[C@H]3O[C@H](CO)[C@@H](O)[C@H](N)[C@H]3O)[C@H](N)C[C@@H]2N)[C@H](N)C[C@@H]1O [TOBRAMYCIN],1,1
COLISTIN,0.5,0.5
